# Assay results taken from publication PMC5976239 (Journal of medicinal chemistry, 2017).
# Read-outs that look alike come from different tables or passages of the source.
# Legend:
# [1] = system: BEAS-2B; assay: In vitro cytotoxicity assay; type: cell-based; conditions: 24 h, 18 and 20 at 7.8 µg/mL
# [2] = system: C. albicans ATCC MYA-1003(R) (G); assay: MIC determination by in vitro antifungal assay; type: cell-based; conditions: Candida albicans, 48 h
# [3] = Hemolytic activity assay; type: cell-based; conditions: mouse, murine red blood cells (mRBCs)
# [4] = system: C. albicans, non-albicans Candida, and Aspergillus strains; assay: Antifungal activity over the panel of 13 fungal strains; type: cell-based; conditions: read-out: antifungal activity class based on MIC values
# [5] = system: Aspergillus flavus ATCC MYA-3631 (K); assay: MIC determination against filamentous fungi; type: cell-based; conditions: 48 h, read-out: MIC (MIC-0)
# [6] = system: C. albicans ATCC 64124(R) (B); assay: MIC determination by in vitro antifungal assay; type: cell-based; conditions: Candida albicans, ATCC64124, 48 h
# [7] = system: Candida albicans ATCC 10231 (A); assay: MIC determination by in vitro antifungal assay; type: cell-based; conditions: ATCC10231, 48 h, read-out: MIC (MIC-0)
# [8] = system: C. albicans ATCC 90819(R) (D); assay: MIC determination by in vitro antifungal assay; type: cell-based; conditions: Candida albicans, ATCC90819, 48 h
# [9] = system: Aspergillus nidulans ATCC 38163 (L); assay: MIC determination in the presence and absence of FBS; type: cell-based; conditions: ATCC38163, read-out: MIC, Aspergillus nidulans ATCC 38163 (L) (no FBS)
# [10] = system: Aspergillus nidulans ATCC 38163 (L); assay: MIC determination against filamentous fungi; type: cell-based; conditions: ATCC38163, 48 h, read-out: MIC (MIC-0)
# [11] = system: HEK-293; assay: In vitro cytotoxicity assay; type: cell-based; conditions: 24 h, 18 and 20 at 7.8 µg/mL
# [12] = system: C. albicans ATCC MYA-2876(S) (C); assay: MIC determination by in vitro antifungal assay; type: cell-based; conditions: Candida albicans, 48 h
# [13] = system: C. albicans ATCC 64124 (strain B) biofilms; assay: Biofilm assay
# [14] = system: C. albicans ATCC MYA-1237(R) (F); assay: MIC determination by in vitro antifungal assay; type: cell-based; conditions: Candida albicans, 48 h
# [15] = system: Candida albicans ATCC 10231 (A); assay: MIC determination in the presence and absence of FBS; type: cell-based; conditions: for MIC: Candida albicans, ATCC10231, read-out: MIC, Candida albicans ATCC 10231 (A) (no FBS); for antifungal activity in the presence of FBS (in words): strains A, J, and L, +10% FBS versus no FBS
# [16] = system: C. albicans ATCC MYA-2310(S) (E); assay: MIC determination by in vitro antifungal assay; type: cell-based; conditions: Candida albicans, 48 h
# [17] = system: A549; assay: In vitro cytotoxicity assay; type: cell-based; conditions: 24 h
# [18] = system: Aspergillus terreus ATCC MYA-3633 (M); assay: MIC determination against filamentous fungi; type: cell-based; conditions: 48 h, read-out: MIC (MIC-0)
# [19] = system: C. albicans ATCC 10231 (strain A); assay: Membrane permeabilization assay using propidium iodide staining; type: cell-based, Candida albicans; conditions: 1 h at 35 °C; 20 and 26 at 4 × MIC, KANB (C14) at 2 × MIC ([…]), FLC at 7.8 µg/mL
# [20] = system: C. albicans ATCC 10231 (strain A); assay: Time-kill assay; type: cell-based, Candida albicans; conditions: 24 h, compound 20 at 4× MIC, VOR at 1× and 4× MIC
# [21] = system: C. glabrata ATCC 2001 (strain H); assay: Time-kill assay; type: cell-based, Candida glabrata; conditions: 24 h, compound 22 at 4× MIC, VOR at 1× and 4× MIC
# [22] = system: C. parapsilosis ATCC 22019 (strain J); assay: Time-kill assay; type: cell-based, Candida parapsilosis; conditions: 24 h, at up to 8× MIC
SMILES,toxicity to mammalian cells (in words) [1],MIC ([2]; read-out: MIC (MIC-0)) [µg/mL],"hemolysis at 60 min, 7.8 µg/mL [3] [%]",MIC [5] [µg/mL],MIC ([6]; read-out: MIC (MIC-0)) [µg/mL],MIC [7] [µg/mL],MIC ([8]; read-out: MIC (MIC-0)) [µg/mL],MIC [10] [µg/mL],toxicity to mammalian cells (in words) [11],MIC ([12]; read-out: MIC (MIC-0)) [µg/mL],increase in MIC in biofilms (SMIC50 and SMIC80 versus MIC in liquid cultures) [13],MIC ([14]; read-out: MIC (MIC-0)) [µg/mL],MIC ([16]; read-out: MIC (MIC-0)) [µg/mL],toxicity to mammalian cells (in words) [17],MIC [18] [µg/mL],propidium iodide (PI) dye uptake by fungal cells [19],further results
"CCCCCCCCCCCCCCN1CCNCC1 [Compound 9, 1-Tetradecyl Piperazine]",toxic,1.95,93,0.975,0.975,0.975,1.95,0.975,toxic,0.975,16–64 fold,1.95,0.975,toxic,0.975,–,MIC [4]: 0.015 to 1.95 µg/mL; MIC [9]: 0.975 µg/mL; MIC [15]: 0.975 µg/mL
"CCCCCCCCCCN1CCN(CC(O)(Cn2cncn2)c2ccc(Cl)cc2Cl)CC1 (stereo not shown) [Compound 25, 2-(2,4-Dichlorophenyl)-1-(1H-1,2,4-triazol-1-yl)-3-(4-decylpiperazine)propan-2-ol]",–,7.8,22,–,–,–,–,–,–,7.8,1–2 fold,7.8,7.8,–,–,–,antifungal activity in the presence of FBS (in words) [15]: retained their full antifungal activity
"C[C@@H]1[C@H](O)[C@@H](C)/C=C/C=C/C=C/C=C/C=C/C=C/C=C/[C@H](O[C@@H]2O[C@H](C)[C@@H](O)[C@H](N)[C@@H]2O)C[C@@H]2O[C@](O)(C[C@@H](O)C[C@@H](O)[C@H](O)CC[C@@H](O)C[C@@H](O)CC(=O)O[C@H]1C)C[C@H](O)[C@H]2C(=O)O [AmB, amphotericin B, reference compound]",–,3.9,–,–,3.9,3.9,0.975,3.9,–,–,–,–,–,–,3.9,–,MIC [9]: 3.9 µg/mL; MIC [15]: 3.9 µg/mL
"CCCCCCCCN1CCN(CC(O)(Cn2cncn2)c2ccc(F)cc2F)CC1 (stereo not shown) [Compound 18, 2-(2,4-Difluorophenyl)-1-(1H-1,2,4-triazol-1-yl)-3-(4-octylpiperazine)propan-2-ol]",some toxicity,0.975 to 31.3,–,1.95,31.3,3.9,15.6,3.9,some toxicity,31.3,–,31.3,> 31.3,nontoxic to A549 at up to 15.5 µg/mL,3.9,–,"hemolysis at 60 min, 62.5 µg/mL [3]: < 10%"
"CCCCCCCCCCCCCCN1CCN(CC(O)(Cn2cncn2)c2ccc(F)cc2F)CC1 (stereo not shown) [Compound 24, 2-(2,4-Difluorophenyl)-1-(1H-1,2,4-triazol-1-yl)-3-(4-tetradecylpiperazine)propan-2-ol]",–,1.95,> 50,0.48,31.3,1.95,1.95,1.95,–,7.8,–,3.9,3.9,–,0.975,–,–
"CCCCCCCCCCCCCCOC[C@H]1O[C@H](O[C@@H]2[C@@H](O)[C@H](O[C@H]3O[C@H](CN)[C@@H](O)[C@H](O)[C@H]3N)[C@@H](N)C[C@H]2N)[C@H](O)[C@@H](N)[C@@H]1O [KANB (C14), reference compound]",–,–,–,–,–,–,–,–,–,–,–,–,–,–,–,significantly increased PI dye uptake,–
CCCCCCCCCCCCN1CCNCC1 [Compound 7],toxic,–,52,–,–,1.95,–,1.95,toxic,–,1–4 fold,–,–,toxic,–,–,MIC [9]: 1.95 µg/mL; MIC [15]: 1.95 µg/mL
"C[C@@H](c1ncncc1F)[C@](O)(Cn1cncn1)c1ccc(F)cc1F [VOR, voriconazole, reference compound]",–,–,–,–,–,–,–,–,–,–,–,–,–,–,–,–,MIC ([2]; read-out: MIC (MIC-2)): 1.95 µg/mL; MIC ([6]; read-out: MIC (MIC-2)): 3.9 µg/mL; MIC ([8]; read-out: MIC (MIC-2)): 1.95 µg/mL; fungistatic or fungicidal activity (time-kill) [20]: fungistatic; fungistatic or fungicidal activity (time-kill) [21]: fungistatic; MIC ([12]; read-out: MIC (MIC-2)): 1.95 µg/mL; MIC ([14]; read-out: MIC (MIC-2)): 7.8 µg/mL; MIC ([16]; read-out: MIC (MIC-2)): 0.975 µg/mL
"CCCCCCCCCCCCN1CCN(CC(O)(Cn2cncn2)c2ccc(Cl)cc2Cl)CC1 (stereo not shown) [Compound 26, 2-(2,4-Dichlorophenyl)-1-(1H-1,2,4-triazol-1-yl)-3-(4-dodecylpiperazine)propan-2-ol]",–,–,85,–,7.8,–,–,–,–,–,2–4 fold,–,–,–,–,neither compound 20 nor 26 (at 4 × MIC) induced cellular uptake of PI dye,antifungal activity in the presence of FBS (in words) [15]: retained their full antifungal activity
CN1CCN(CC(O)(Cn2cncn2)c2ccc(F)cc2F)CC1 (stereo not shown) [Compound 16],–,31.3,–,31.3,31.3,7.8,31.3,0.975,–,7.8,–,31.3,7.8,–,31.3,–,"hemolysis at 60 min, 62.5 µg/mL [3]: < 10%"
"OC(Cn1cncn1)(Cn1cncn1)c1ccc(F)cc1F [FLC, fluconazole, reference compound]",–,–,–,–,–,–,–,–,–,–,–,–,–,–,–,did not allow for PI uptake,MIC ([6]; read-out: MIC (MIC-2)): > 125 µg/mL; MIC ([8]; read-out: MIC (MIC-2)): > 125 µg/mL; MIC ([12]; read-out: MIC (MIC-2)): 15.6 µg/mL; MIC ([16]; read-out: MIC (MIC-2)): > 125 µg/mL
"CCCCCCCCCCN1CCN(CC(O)(Cn2cncn2)c2ccc(F)cc2F)CC1 (stereo not shown) [Compound 20, 2-(2,4-Difluorophenyl)-1-(1H-1,2,4-triazol-1-yl)-3-(4-decylpiperazine)propan-2-ol]",some toxicity,3.9,–,0.24,3.9,–,3.9,–,some toxicity,–,4–16 fold,–,–,no toxicity at up to 7.8 µg/mL,–,neither compound 20 nor 26 (at 4 × MIC) induced cellular uptake of PI dye,fungistatic or fungicidal activity (time-kill) [20]: fungicidal; antifungal activity in the presence of FBS (in words) [15]: retained their full antifungal activity; fungistatic or fungicidal activity (time-kill) [22]: fungistatic
